Source: patent US4471131A, “Novel silyl esters of N-phosphonomethylglycine” (Monsanto Company, priority 1983, dated 1984)

Assays:
Experiment in all cases: post-emergence herbicidal activity, greenhouse
Type in all cases: in vivo
Barnyardgrass = system: Barnyardgrass
Outline: (§1)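 The readout is plant injury compared with untreated pans, taken at two time points, about two and four weeks after spraying. Plants had grown two to three weeks in greenhouse topsoil pans before atomizer treatment.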

Canada Thistle = conditions: Table II, formulated immediately prior to treatment
Outline: as §1

Cocklebur = system: Cocklebur
Outline: as §1

Common Lambsquarters = system: Common Lambsquarters
Outline: as §1

Downy Brome = system: Downy Brome
Outline: as §1

Hemp Sesbania = conditions: Table III, 2 WAT
Outline: as §1

Johnsongrass = conditions: Table II, formulated immediately prior to treatment
Outline: as §1

Large Crabgrass = conditions: Table III; 2 WAT; 5.6 kg/h
Outline: as §1

Morningglory = system: Morningglory
Outline: as §1

Panicum Spp = conditions: Table III; 2 WAT; 5.6 kg/h
Outline: as §1

Pennsylvania Smartweed = system: Pennsylvania Smartweed
Outline: as §1

Quackgrass = conditions: Table II, formulated immediately prior to treatment
Outline: (§2)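 Plants grown from seed or vegetative propagules in topsoil pans on a greenhouse sand bench, watered from below, were atomizer-sprayed at two to three weeks of age. The spray carried about 0.4% by weight emulsifier. Injury relative to unsprayed control pans was scored approximately two and four weeks after treatment.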

Rice = conditions: Table III, 2 WAT
Outline: as §1

Soybean = conditions: Table III, 2 WAT
Outline: as §1

Sugar Beet = conditions: Table III; 2 WAT; 5.6 kg/h
Outline: as §1

Velvetleaf = system: Velvetleaf
Outline: as §1

Wild Buckwheat = conditions: Table III, 2 WAT
Outline: as §1

Yellow Nutsedge = conditions: Table II, formulated immediately prior to treatment
Outline: as §2

[1] = Table II, 2 WAT, 5.6 kg/h, formulated immediately prior to treatment
[2] = Table II, 2 WAT, 11.2 kg/h, formulated immediately prior to treatment
[3] = Table II, 4 WAT, 5.6 kg/h, formulated immediately prior to treatment
[4] = Table II, 4 WAT, 11.2 kg/h, formulated immediately prior to treatment

SMILES: CC(C)(C)[Si](C)(C)OP(=O)(CNCC(=O)OCCc1ccccc1)O[Si](C)(C)C(C)(C)C [Ex. 10, Glycine, N--((Bis[((1,1-Dimethylethyl)Dimethylsilyl)Oxy]Phosphinyl)Methyl)-,2-Phenylethyl Ester Hydrate]
- Plant Response Index (K) (Barnyardgrass; [1]): 1 (25-49% inhibition)
- Plant Response Index (K) (Barnyardgrass; [2]): 2 (50-74% inhibition)
- Plant Response Index (K) (Barnyardgrass; [3]): 2 (50-74% inhibition)
- Plant Response Index (K) (Barnyardgrass; [4]): 3 (75-99% inhibition)
- Plant Response Index (K) (Barnyardgrass; Table III, 2 WAT, 5.6 kg/h): 2 (50-74% inhibition)
- Plant Response Index (A) (Canada Thistle; 2 WAT, 5.6 kg/h): 0 (0-24% inhibition)
- Plant Response Index (A) (Canada Thistle; 2 WAT, 11.2 kg/h): 2 (50-74% inhibition)
- Plant Response Index (A) (Canada Thistle; 4 WAT, 5.6 kg/h): 0 (0-24% inhibition)
- Plant Response Index (A) (Canada Thistle; 4 WAT, 11.2 kg/h): 2 (50-74% inhibition)
- Plant Response Index (B) (Cocklebur; [1]): 1 (25-49% inhibition)
- Plant Response Index (B) (Cocklebur; [2]): 2 (50-74% inhibition)
- Plant Response Index (B) (Cocklebur; [3]): 0 (0-24% inhibition)
- Plant Response Index (B) (Cocklebur; [4]): 2 (50-74% inhibition)
- Plant Response Index (B) (Cocklebur; Table III, 2 WAT, 1.1 kg/h): 0 (0-24% inhibition)
- Plant Response Index (B) (Cocklebur; Table III, 2 WAT, 5.6 kg/h): 2 (50-74% inhibition)
- Plant Response Index (E) (Common Lambsquarters; [1]): 2 (50-74% inhibition)
- Plant Response Index (E) (Common Lambsquarters; [2]): 3 (75-99% inhibition)
- Plant Response Index (E) (Common Lambsquarters; [3]): 3 (75-99% inhibition)
- Plant Response Index (E) (Common Lambsquarters; [4]): 3 (75-99% inhibition)
- Plant Response Index (E) (Common Lambsquarters; Table III, 2 WAT, 1.1 kg/h): 2 (50-74% inhibition)
- Plant Response Index (E) (Common Lambsquarters; Table III, 2 WAT, 5.6 kg/h): 3 (75-99% inhibition)
- Plant Response Index (J) (Downy Brome; [1]): 0 (0-24% inhibition)
- Plant Response Index (J) (Downy Brome; [2]): 1 (25-49% inhibition)
- Plant Response Index (J) (Downy Brome; [3]): 0 (0-24% inhibition)
- Plant Response Index (J) (Downy Brome; [4]): 1 (25-49% inhibition)
- Plant Response Index (J) (Downy Brome; Table III, 2 WAT, 1.1 kg/h): 0 (0-24% inhibition)
- Plant Response Index (J) (Downy Brome; Table III, 2 WAT, 5.6 kg/h): 1 (25-49% inhibition)
- Plant Response Index (R) (Hemp Sesbania; 1.1 kg/h): 0 (0-24% inhibition)
- Plant Response Index (R) (Hemp Sesbania; 5.6 kg/h): 0 (0-24% inhibition)
- Plant Response Index (I) (Johnsongrass; 2 WAT, 5.6 kg/h): 0 (0-24% inhibition)
- Plant Response Index (I) (Johnsongrass; 2 WAT, 11.2 kg/h): 1 (25-49% inhibition)
- Plant Response Index (I) (Johnsongrass; 4 WAT, 5.6 kg/h): 0 (0-24% inhibition)
- Plant Response Index (I) (Johnsongrass; 4 WAT, 11.2 kg/h): 1 (25-49% inhibition)
- Plant Response Index (T) (Large Crabgrass): 3 (75-99% inhibition)
- Plant Response Index (D) (Morningglory; [1]): 1 (25-49% inhibition)
- Plant Response Index (D) (Morningglory; [2]): 2 (50-74% inhibition)
- Plant Response Index (D) (Morningglory; [3]): 0 (0-24% inhibition)
- Plant Response Index (D) (Morningglory; [4]): 2 (50-74% inhibition)
- Plant Response Index (D) (Morningglory; Table III, 2 WAT, 5.6 kg/h): 0 (0-24% inhibition)
- Plant Response Index (S) (Panicum Spp): 3 (75-99% inhibition)
- Plant Response Index (F) (Pennsylvania Smartweed; [1]): 1 (25-49% inhibition)
- Plant Response Index (F) (Pennsylvania Smartweed; [2]): 3 (75-99% inhibition)
- Plant Response Index (F) (Pennsylvania Smartweed; [3]): 1 (25-49% inhibition)
- Plant Response Index (F) (Pennsylvania Smartweed; [4]): 3 (75-99% inhibition)
- Plant Response Index (F) (Pennsylvania Smartweed; Table III, 2 WAT, 1.1 kg/h): 2 (50-74% inhibition)
- Plant Response Index (F) (Pennsylvania Smartweed; Table III, 2 WAT, 5.6 kg/h): 2 (50-74% inhibition)
- Plant Response Index (H) (Quackgrass; 2 WAT, 5.6 kg/h): 0 (0-24% inhibition)
- Plant Response Index (H) (Quackgrass; 2 WAT, 11.2 kg/h): 1 (25-49% inhibition)
- Plant Response Index (H) (Quackgrass; 4 WAT, 5.6 kg/h): 0 (0-24% inhibition)
- Plant Response Index (H) (Quackgrass; 4 WAT, 11.2 kg/h): 1 (25-49% inhibition)
- Plant Response Index (O) (Rice; 1.1 kg/h): 0 (0-24% inhibition)
- Plant Response Index (O) (Rice; 5.6 kg/h): 0 (0-24% inhibition)
- Plant Response Index (L) (Soybean; 1.1 kg/h): 0 (0-24% inhibition)
- Plant Response Index (L) (Soybean; 5.6 kg/h): 0 (0-24% inhibition)
- Plant Response Index (M) (Sugar Beet): 3 (75-99% inhibition)
- Plant Response Index (C) (Velvetleaf; [1]): 0 (0-24% inhibition)
- Plant Response Index (C) (Velvetleaf; [2]): 2 (50-74% inhibition)
- Plant Response Index (C) (Velvetleaf; [3]): 0 (0-24% inhibition)
- Plant Response Index (C) (Velvetleaf; [4]): 2 (50-74% inhibition)
- Plant Response Index (C) (Velvetleaf; Table III, 2 WAT, 5.6 kg/h): 2 (50-74% inhibition)
- Plant Response Index (Q) (Wild Buckwheat; 1.1 kg/h): 0 (0-24% inhibition)
- Plant Response Index (Q) (Wild Buckwheat; 5.6 kg/h): 0 (0-24% inhibition)
- Plant Response Index (G) (Yellow Nutsedge; 2 WAT, 5.6 kg/h): 1 (25-49% inhibition)
- Plant Response Index (G) (Yellow Nutsedge; 2 WAT, 11.2 kg/h): 2 (50-74% inhibition)
- Plant Response Index (G) (Yellow Nutsedge; 4 WAT, 5.6 kg/h): 2 (50-74% inhibition)
- Plant Response Index (G) (Yellow Nutsedge; 4 WAT, 11.2 kg/h): 2 (50-74% inhibition)
